IC50 data for 25 compounds are collected here from patent publication US20250320202A1, “PRMT5 INHIBITOR, PREPARATION METHOD THEREFOR, AND PHARMACEUTICAL USE THEREOF” (Abbisko Therapeutics Co., Ltd., priority 2022, published 2025).

Assay [1] has as its system HCT116 MTAP knockout cells. Nature of the assay: Human colon cancer HCT116 cell proliferation inhibition test (CellTiter-Glo, 6 days), MTAP knockout cells. The note with it: HCT-116, 144 h. In kind it is cell-based. As to the method: (§1) 1. HCT116 MTAP knockout and MTAP wild-type cells were plated in 96-well flat bottom plates, and cultured overnight with McCoy's 5A medium containing 10% fetal bovine serum+1% penicillin-streptomycin at 37° C. and 5% CO2.
(§2) 2. On the next day, the compound was dissolved with DMSO, diluted with DMSO and medium successively and transferred to the cell plate. The final concentration of the compound was 10 μM, the compound was diluted 4 times, with 9 concentration gradients, and DMSO control was added.
(§3) 3. Cells that have not been treated with the compound were removed. CellTiter-Glo Luminescent Cell Viability Assay (Promega) was used to detect cell viability, the operation was performed with reference to the package insert of the kit, and then the cell plate was placed on EnVision Multilabel Reader to detect the cold light signal.
(§4) 4. Meanwhile, the cell plate treated with the compound was cultured at 37° C. and 5% CO2 for 6 consecutive days.
(§5) 5. Then, CellTiter-Glo was also used to detect cell viability.
(§6) 6. Finally, the four-parameter dose-response curve module of GraphPad Prism v 9.2.0 software was used to plot the dose-response curve and calculate the IC50 for proliferation inhibition (unit: nM).
Background: In ATP-based viability assays light output follows the ATP content of the culture.

Assay [2] concerns HCT116 MTAP wild-type cells. Nature of the assay: Human colon cancer HCT116 cell proliferation inhibition test (CellTiter-Glo, 6 days), MTAP wild-type cells. The class given is cell-based. The note with it: HCT-116, 144 h. As to the method: as §1, §2, §3, §4, §5, §6

In general, IC50 refers to the concentration that gives 50% inhibition. A lower IC50 goes with higher potency. `Nc1nc2ccc(C(=O)N(CC3CC3)[C@H]3CCc4nc(C(F)(F)F)ccc43)cc2c2cnccc12` [Example 1, (S)-5-amino-N-(cyclopropylmethyl)-N-(2-(trifluoromethyl)-6,7-dihydro-5H-cyclopenta[b]pyridin-5-yl)benzo[c][2,6]naphthyridin-9-carboxamide] yielded an IC50 in assay [1] of 792 nM. Take `Cn1cc(N(C(=O)c2cc3c(cc2F)nc(N)c2cnn(C)c23)[C@@H]2COc3nc(C(F)(F)F)ccc32)cn1` [Example 2, (S)-4-amino-7-fluoro-1-methyl-N-(1-methyl-1H-pyrazol-4-yl)-N-(6-(trifluoromethyl)-2,3-dihydrofuro[2,3-b]pyridin-3-yl)-1H-pyrazolo[4,3-c]quinolin-8-carboxamide]: the figures for the IC50 in assay [2] and in assay [1] were 30 nM and 1 nM, respectively. In turn, `Cn1ncc2c(N)nc3cc(F)c(C(=O)N(Cc4ncccn4)C4CCc5cc(C(F)(F)F)ccc54)cc3c21` (centres unmarked) [Example 7, 4-amino-7-fluoro-1-methyl-N-(pyrimidin-2-ylmethyl)-N-(5-(trifluoromethyl)-2,3-dihydro-1H-inden-1-yl)-1H-pyrazol[4,3-c]quinolin-8-carboxamide] displayed an IC50 in assay [1] of 57 nM. The same measure, in the same setting: in the case of `Cn1cc(N(C(=O)c2cc3c(cc2F)nc(N)c2cnn(C)c23)C2CCc3cc(C(F)(F)F)ccc32)cn1` (centres unmarked) [Example 8, 4-amino-7-fluoro-1-methyl-N-(1-methyl-1H-pyrazol-4-yl)-N-(5-(trifluoromethyl)-2,3-dihydro-1H-inden-1-yl)-1H-pyrazolo[4,3-c]quinolin-8-carboxamide] it was 4 nM. `Cn1cc(N(C(=O)c2cc3c(cc2F)nc(N)c2cnn(C)c23)C2COc3cc(C(F)(F)F)ccc32)cn1` (centres unmarked) [Example 21, 4-amino-7-fluoro-1-methyl-N-(1-methyl-1H-pyrazol-4-yl)-N-(6-(trifluoromethyl)-2,3-dihydrobenzofuran-3-yl)-1H-pyrazolo[4,3-c]quinolin-8-carboxamide]: the IC50 in assay [2] was found to be 79 nM; in assay [1] it was 0.8 nM.

`Cn1ncc2c(N)nc3cc(F)c(C(=O)N(Cc4cscn4)C4CCc5cc(C(F)(F)F)ccc54)cc3c21` (centres unmarked) [Example 95, 4-amino-7-fluoro-1-methyl-N-(thiazol-4-ylmethyl)-N-(5-(trifluoromethyl)-2,3-dihydro-1H-inden-1-yl)-1H-pyrazolo[4,3-c]quinolin-8-carboxamide] yielded an IC50 in assay [1] of 52 nM. Take `Nc1nc2ccc(C(=O)N(CC3CC3)C3CCc4cc(C(F)(F)F)ccc43)cc2c2cnccc12` (centres unmarked) [Example 108, 5-amino-N-(cyclopropylmethyl)-N-(5-(trifluoromethyl)-2,3-dihydro-1H-inden-1-yl)benzo[c][2,6]naphthyridin-9-carboxamide]: the IC50 amounted to 1420 nM in assay [2] and 36 nM in assay [1]. The matching figures for `Nc1nc2ccc(C(=O)N(CC3CC3)C3COc4cc(C(F)(F)F)ccc43)cc2c2cnccc12` (centres unmarked) [Example 109, 5-amino-N-(cyclopropylmethyl)-N-(6-(trifluoromethyl)-2,3-dihydrobenzofuran-3-yl)benzo[c][2,6]naphthyridin-9-carboxamide]: 824 nM and 15 nM. In assay [1], `Nc1nc2ccc(C(=O)N(CC3CC3)C3CCc4nc(C(F)(F)F)ccc43)cc2c2cnccc12` (centres unmarked) [Example 110, 5-amino-N-(cyclopropylmethyl)-N-(2-(trifluoromethyl)-6,7-dihydro-5H-cyclopenta[b]pyridin-5-yl)benzo[c][2,6]naphthyridin-9-carboxamide] showed an IC50 of 116 nM. For the compound `Nc1nc2ccc(C(=O)N(CC3CC3)C3COc4nc(C(F)(F)F)ccc43)cc2c2cnccc12` (centres unmarked) [Example 111, 5-amino-N-(cyclopropylmethyl)-N-(6-(trifluoromethyl)-2,3-dihydrofuro[2,3-b]pyridin-3-yl)benzo[c][2,6]naphthyridin-9-carboxamide], 115 nM corresponded to half-maximal inhibition in assay [1] (IC50).

In the case of `Cn1ncc2c(N)nc3cc(F)c(C(=O)N(c4cscn4)C4CCc5cc(C(F)(F)F)ccc54)cc3c21` (centres unmarked) [Example 152, 4-amino-7-fluoro-1-methyl-N-(thiazol-4-yl)-N-(5-(trifluoromethyl)-2,3-dihydro-1H-inden-1-yl)-1H-pyrazolo[4,3-c]quinolin-8-carboxamide], it took 4 nM to reach half-maximal inhibition in assay [1] (IC50).

As to `Cn1ncc2c(N)nc3cc(F)c(C(=O)N(CC(F)(F)F)C4COc5cc(C(F)(F)F)ccc54)cc3c21` (centres unmarked) [Example 157, 4-amino-7-fluoro-1-methyl-N-(2,2,2-trifluoroethyl)-N-(6-(trifluoromethyl)-2,3-dihydrobenzofuran-3-yl)-1H-pyrazolo[4,3-c]quinolin-8-carboxamide], the IC50 in assay [1] was 139 nM. The compound `Nc1nc2ccc(C(=O)N(c3ncns3)[C@@H]3CCc4cc(C(F)(F)F)ccc43)cc2c2cnccc12` [Example 191, (R)-5-amino-N-(1,2,4-thiadiazol-5-yl)-N-(5-(trifluoromethyl)-2,3-dihydro-1H-inden-1-yl)benzo[c][2,6]naphthyridin-9-carboxamide] came in with an IC50 in assay [1] of 2900 nM. As for `Nc1nc2ccc(C(=O)N(CC3CC3)[C@H]3COc4nc(C(F)(F)F)ccc43)cc2c2cnccc12` [Example 196, (R)-5-amino-N-(cyclopropylmethyl)-N-(6-(trifluoromethyl)-2,3-dihydrofuro[2,3-b]pyridin-3-yl)benzo[c][2,6]naphthyridin-9-carboxamide], half-maximal inhibition in assay [1] (IC50) was put at 1530 nM.

`Nc1nc2ccc(C(=O)N(CC3CC3)[C@@H]3CCc4nc(C(F)(F)F)ccc43)cc2c2cnccc12` [Example 199, (R)-5-amino-N-(cyclopropylmethyl)-N-(2-(trifluoromethyl)-6,7-dihydro-5H-cyclopenta[b]pyridin-5-yl)benzo[c][2,6]naphthyridin-9-carboxamide]: 134 nM corresponded to half-maximal inhibition in assay [1] (IC50). `Cn1ncc2c(N)nc3cc(F)c(C(=O)N(c4cscn4)[C@@H]4CCc5cc(C(F)(F)F)ccc54)cc3c21` [Example 211, (R)-4-amino-7-fluoro-1-methyl-N-(thiazol-4-yl)-N-(5-(trifluoromethyl)-2,3-dihydro-1H-inden-1-yl)-1H-pyrazolo[4,3-c]quinolin-8-carboxamide]: in assay [1], inhibition was half-maximal at 4 nM (IC50).

Turning to `Nc1nc2ccc(C(=O)N(c3cscn3)[C@@H]3CCc4cc(C(F)(F)F)ccc43)cc2c2cnccc12` [Example 212, (R)-5-amino-N-(thiazol-4-yl)-N-(5-(trifluoromethyl)-2,3-dihydro-1H-inden-1-yl)benzo[c][2,6]naphthyridin-9-carboxamide], inhibition in assay [1] was half-maximal at 16 nM (IC50). The same measure, in the same setting: in the case of `Cn1ncc2c(N)nc3ccc(C(=O)N(c4ncccn4)C4CCc5cc(C(F)(F)F)ccc54)cc3c21` (centres unmarked) [Example 214, 4-amino-1-methyl-N-(pyrimidin-2-yl)-N-(5-(trifluoromethyl)-2,3-dihydro-1H-inden-1-yl)-1H-pyrazolo[4,3-c]quinolin-8-carboxamide] it was 325 nM; in that of `COC[C@@H](C)N(C(=O)c1ccc2nc(N)c3ccncc3c2c1)[C@H]1CCc2cc(C(F)(F)F)ccc21` [Example 215, 5-amino-N-((R)-1-methoxypropan-2-yl)-N-((S)-5-(trifluoromethyl)-2,3-dihydro-1H-inden-1-yl)benzo[c][2,6]naphthyridin-9-carboxamide], 6930 nM; in that of `COC[C@@H](C)N(C(=O)c1ccc2nc(N)c3ccncc3c2c1)[C@@H]1CCc2cc(C(F)(F)F)ccc21` [Example 216, 5-amino-N-((R)-1-methoxypropan-2-yl)-N-((R)-5-(trifluoromethyl)-2,3-dihydro-1H-inden-1-yl)benzo[c][2,6]naphthyridin-9-carboxamide], 940 nM. In assay [1], `COC[C@@H](C)N(C(=O)c1cc2c3c(c(N)nc2cc1F)COC3)[C@H]1CCc2cc(C(F)(F)F)ccc21` [Example 217, 4-amino-7-fluoro-N-((R)-1-methoxypropan-2-yl)-N-((S)-5-(trifluoromethyl)-2,3-dihydro-1H-inden-1-yl)-1,3-dihydrofuro[3,4-c]quinolin-8-carboxamide] returned a concentration for half-maximal inhibition (IC50) of 2360 nM. Turning to `COC[C@@H](C)N(C(=O)c1cc2c3c(c(N)nc2cc1F)COC3)[C@@H]1CCc2cc(C(F)(F)F)ccc21` [Example 218, 4-amino-7-fluoro-N-((R)-1-methoxypropan-2-yl)-N-((R)-5-(trifluoromethyl)-2,3-dihydro-1H-inden-1-yl)-1,3-dihydrofuro[3,4-c]quinolin-8-carboxamide], the IC50 in assay [1] is 485 nM.

For `C[C@H](c1ncccn1)N(C(=O)c1ccc2nc(N)c3ccncc3c2c1)[C@@H]1CCc2cc(C(F)(F)F)ccc21` [Example 222, 5-amino-N-((R)-1-(pyrimidin-2-yl)ethyl)-N-((R)-5-(trifluoromethyl)-2,3-dihydro-1H-inden-1-yl)benzo[c][2,6]naphthyridin-9-carboxamide], the IC50 in assay [1] was found to be 217 nM. Regarding `C[C@H](c1ncccn1)N(C(=O)c1cc2c3c(c(N)nc2cc1F)COC3)[C@@H]1CCc2cc(C(F)(F)F)ccc21` [Example 223, 4-amino-7-fluoro-N-((R)-1-(pyrimidin-2-yl)ethyl)-N-((R)-5-(trifluoromethyl)-2,3-dihydro-1H-inden-1-yl)-1,3-dihydrofuro[3,4-c]quinolin-8-carboxamide], the IC50 in assay [1] is 118 nM. On the same count and under the same terms, in the case of `C[C@@H](c1ncccn1)N(C(=O)c1cc2c3c(c(N)nc2cc1F)COC3)[C@@H]1CCc2cc(C(F)(F)F)ccc21` [Example 224, 4-amino-7-fluoro-N-((S)-1-(pyrimidin-2-yl)ethyl)-N-((R)-5-(trifluoromethyl)-2,3-dihydro-1H-inden-1-yl)-1,3-dihydrofuro[3,4-c]quinolin-8-carboxamide] it was 640 nM.
